Test results taken from ChEMBL document CHEMBL3616401, “Thiophene-expanded guanosine analogues of Gemcitabine” (2015).

Key:
Format in all cases: functional
T47D = test: Growth inhibition of human T47D cells assessed as cell growth at 15 ug/ml; settings: read-out: Activity
[1] = Growth inhibition of human LOXIMVI cells assessed as cell growth at 15 ug/ml; settings: LOX IMVI, read-out: Activity
NCI-H522 = test: Growth inhibition of human NCI-H522 cells assessed as cell growth at 15 ug/ml; settings: read-out: Activity
[2] = Growth inhibition of human MOLT4 cells assessed as cell growth at 15 ug/ml; settings: MOLT-4, read-out: Activity

Compound | growth at 15 µg/mL (T47D) [%] | growth at 15 µg/mL [1] [%] | growth at 15 µg/mL (NCI-H522) [%] | growth at 15 µg/mL [2] [%]
Nc1nc2c(sc3ncn([C@@H]4O[C@H](CO)[C@@H](O)C4(F)F)c32)c(=O)[nH]1 | 10.5 | 25.6 | 34 | 13.9
CC(C)OC(=O)[C@H](C)NP(=O)(OC[C@H]1O[C@@H](n2cnc3sc4c(=O)[nH]c(N)nc4c32)C(F)(F)[C@@H]1OP(=O)(N[C@@H](C)C(=O)OC(C)C)Oc1ccccc1)Oc1ccccc1 (some centres not stated) | 87.2 | 102 | 77.7 | 109
CC(C)OC(=O)[C@H](C)NP(=O)(OC[C@H]1O[C@@H](n2cnc3sc4c(=O)[nH]c(N)nc4c32)C(F)(F)[C@@H]1O)Oc1ccccc1 (some centres not stated) | 64.5 | 74.1 | 65.6 | 94
